This assay deals with PIK3CA (human) (UniProt P42336). The assay is described as follows: Assessment of PIK3CA Kinase Activity.
Chain of PIK3CA (human) (P42336 whole entry, looked up): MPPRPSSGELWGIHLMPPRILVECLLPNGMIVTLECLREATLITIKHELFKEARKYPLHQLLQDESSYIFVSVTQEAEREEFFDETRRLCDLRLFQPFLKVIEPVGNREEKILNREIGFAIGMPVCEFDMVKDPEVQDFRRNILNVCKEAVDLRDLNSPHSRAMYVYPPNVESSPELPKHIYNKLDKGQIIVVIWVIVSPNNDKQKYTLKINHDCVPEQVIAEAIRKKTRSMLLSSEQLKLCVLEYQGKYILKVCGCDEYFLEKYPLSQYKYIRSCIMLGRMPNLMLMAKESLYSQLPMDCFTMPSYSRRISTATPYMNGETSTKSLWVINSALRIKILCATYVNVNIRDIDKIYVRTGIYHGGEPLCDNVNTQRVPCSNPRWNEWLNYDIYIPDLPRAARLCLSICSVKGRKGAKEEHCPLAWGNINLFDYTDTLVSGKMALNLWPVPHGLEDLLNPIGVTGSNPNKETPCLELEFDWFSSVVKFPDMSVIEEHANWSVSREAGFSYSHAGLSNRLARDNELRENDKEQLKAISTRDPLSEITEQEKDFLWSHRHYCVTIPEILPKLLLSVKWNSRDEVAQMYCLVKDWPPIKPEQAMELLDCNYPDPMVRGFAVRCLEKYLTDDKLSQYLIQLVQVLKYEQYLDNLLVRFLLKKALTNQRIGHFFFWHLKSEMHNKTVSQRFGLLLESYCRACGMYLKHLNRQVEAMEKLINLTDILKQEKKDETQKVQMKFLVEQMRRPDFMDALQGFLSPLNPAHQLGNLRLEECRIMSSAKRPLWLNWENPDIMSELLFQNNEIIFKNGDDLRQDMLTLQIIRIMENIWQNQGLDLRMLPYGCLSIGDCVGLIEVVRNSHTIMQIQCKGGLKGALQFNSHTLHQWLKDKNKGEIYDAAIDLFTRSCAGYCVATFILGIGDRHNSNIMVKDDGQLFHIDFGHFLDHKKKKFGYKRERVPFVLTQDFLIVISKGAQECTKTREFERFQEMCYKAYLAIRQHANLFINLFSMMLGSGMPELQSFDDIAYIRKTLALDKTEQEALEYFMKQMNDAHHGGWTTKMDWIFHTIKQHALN

One may read the IC50 as the concentration that inhibits the measured activity by half. The low end stands for greater potency in that assay, the high end for weaker potency in that assay. Take `O=C(Nc1ccc(-c2nc(N3CCOCC3)c3sccc3n2)cc1)NC1CC1`: the IC50 is 636 nM.
With `O=CNc1c(O)nc(-c2ccc(NC(=O)Nc3ccc(C(=O)NCCN4CCCCC4)cc3)cc2)nc1N1CCOCC1` the figure was 202 nM; with `O=C(Nc1ccc(-c2ncc(-c3ccccc3)c(N3CCOCC3)n2)cc1)Nc1cccnc1`, 53 nM; with `CN(C)CCOc1ccc(NC(=O)Nc2ccc(-c3nccc(N4CCOCC4)n3)cc2)cc1`, 22 nM.
With `CN(C)CCN(C)C(=O)c1ccc(NC(=O)Nc2ccc(-c3nc(O)c(NC=O)c(N4CCOCC4)n3)cc2)cc1` the figure was 76 nM.
The result for `O=C(Nc1ccc(-c2ccnc(N3CCOCC3)n2)cc1)Nc1cccnc1` reads 42 nM; that for `O=C(Nc1ccncc1)Nc1ccc(-c2ncc(Cl)c(N3CCOCC3)n2)cc1`, 42 nM.
On to `O=C(Nc1ccc(-c2nccc(N3CCOCC3)n2)cc1)Nc1ccc(N2CCOCC2)cc1`, for which the IC50 worked out at 35 nM.
With `C[C@@H]1COCCN1c1cc(C2CCOCC2)nc(-c2ccc(NC(=O)Nc3ccncc3)cc2)n1` the figure was 383 nM; with `O=C(Nc1ccncc1)Nc1ccc(-c2nc(N3CCOCC3)c3sccc3n2)cc1`, 9 nM.
The result for `CNC(=O)Nc1ccc(-c2nccc(N3CCOCC3)n2)cc1` reads 384 nM; that for `CNC(=O)Nc1ccc(-c2nc(N3CCOCC3)c3sccc3n2)cc1`, 93 nM; that for `CNC(=O)Nc1ccc(-c2cc(N3CCOCC3)c3cnn(C4CCN(Cc5ccccc5)CC4)c3n2)cc1`, 592 nM.
With `C[C@@H]1COCCN1c1cc(C2CCOCC2)nc(-c2ccc(NC(=O)Nc3ccc(N4CCN(C)CC4)nc3)cc2)n1` the figure was 694 nM.
On to `CNC(=O)Nc1ccc(-c2ccnc(N3CCOCC3)n2)cc1`, for which the IC50 is 394 nM.
The result for `O=C(Nc1ccc(-c2ccnc(N3CCOCC3)n2)cc1)OCCO` reads 2860 nM; that for `CN1CCN(c2ccc(NC(=O)Nc3ccc(-c4nccc(N5CCOCC5)n4)cc3)cc2)CC1`, 19 nM; that for `CCNC(=O)Nc1ccc(-c2nc(N3CCOCC3)c3sccc3n2)cc1`, 312 nM.
With `C[C@@H]1COCCN1c1cc(N2CCOC[C@H]2C)nc(-c2ccc(NC(=O)Nc3ccc(C(=O)N4CCN(C)CC4)cc3)cc2)n1` the figure was 77.5 nM; with `O=C(Nc1ccncc1)Nc1ccc(-c2nccc(N3CCOCC3)n2)cc1`, 15 nM; with `Cc1ccc2c(N3CCOCC3)nc(-c3ccc(NC(=O)Nc4ccncc4)cc3)nc2c1`, 35 nM.
With `O=C(Nc1ccc(-c2nccc(N3CCOCC3)n2)cc1)OCCO` the figure was 2550 nM; with `O=C(Nc1ccncc1)Nc1ccc(-c2nc(N3CCOCC3)cc(N3CCOCC3)n2)cc1`, 21 nM; with `C[C@@H]1COCCN1c1cc(C2CCOCC2)nc(-c2ccc(NC(=O)Nc3ccc(C(=O)N4CCN(C)CC4)cc3)cc2)n1`, 80.5 nM.
In turn, `CN(C)CCN(C)C(=O)c1ccc(NC(=O)Nc2ccc(-c3nc(O)c(N)c(N4CCOCC4)n3)cc2)cc1` showed an IC50 of 31 nM.
With `O=C(NCCF)Nc1ccc(-c2nc(N3CCOCC3)c3sccc3n2)cc1` the figure was 364 nM.
`C[C@@H]1COCCN1c1cc(C2CCOCC2)nc(-c2ccc(NC(=O)Nc3cccnc3)cc2)n1` registered a 50% inhibitory concentration (IC50) of 684 nM. Against the preceding compound, the IC50 is about 1.9-fold higher.
With `C=CCc1cnc(-c2ccc(NC(=O)Nc3cccnc3)cc2)nc1N1CCOCC1` the figure was 35 nM; with `O=C(Nc1ccccc1)Nc1ccc(-c2nc(N3CCOCC3)c3sccc3n2)cc1`, 7 nM; with `O=C(Nc1ccc(-c2cc3nccn3c(N3CCOCC3)n2)cc1)NC1CC1`, 5080 nM.
Take `O=C(Nc1ccc(-c2nccc(N3CCOCC3)n2)cc1)NC1CC1`: the IC50 turned out to be 2750 nM.
Turning to `O=C(Nc1ccc(-c2nc(N3CCOCC3)c3sccc3n2)cc1)Nc1cccnc1`, the 50% inhibitory concentration (IC50) is 11 nM.
With `C[C@@H]1COCCN1c1cc(C2CCOCC2)nc(-c2ccc(NC(=O)Nc3ccc(N4CCN(C)CC4)cc3)cc2)n1` the figure was 420 nM; with `C[C@@H]1COCCN1c1cc(N2CCOC[C@H]2C)nc(-c2ccc(NC(=O)Nc3ccncc3)cc2)n1`, 572 nM.
The result for `O=C(Nc1ccc(-c2nccc(N3CCOCC3)n2)cc1)Nc1ccc(N2CCOCC2)nc1` reads 112 nM.
With `CCNC(=O)Nc1ccc(-c2nccc(N3CCOCC3)n2)cc1` the figure was 415 nM; with `O=C(NCCO)Nc1ccc(-c2nc(N3CCOCC3)c3sccc3n2)cc1`, 141 nM; with `COC(=O)Nc1ccc(-c2nc(N3CCOCC3)c3sccc3n2)cc1`, 1600 nM.
For the compound `O=C(Nc1ccc(-c2ncc([N+](=O)[O-])c(N3CCOCC3)n2)cc1)Nc1cccnc1`, the IC50 came to 155 nM.
Turning to `O=C(Nc1ccncc1)Nc1ccc(-c2cc3nccn3c(N3CCOCC3)n2)cc1`, the IC50 was determined as 654 nM.
The result for `CC(C)N1CCN(C(=O)c2ccc(NC(=O)Nc3ccc(-c4nc(N5CCOC[C@H]5C)cc(N5CCOC[C@H]5C)n4)cc3)cc2)CC1` reads 113 nM; that for `CN1CCN(c2ccc(NC(=O)Nc3ccc(-c4cc(N5CCOCC5)nc(-c5ccccc5)n4)cc3)cc2)CC1`, 7770 nM; that for `CN1CCN(c2ccc(NC(=O)Nc3ccc(-c4nccc(N5CCOCC5)n4)cc3)cn2)CC1`, 46 nM.
With `O=C(Nc1ccc(-c2cc(N3CCOCC3)nc(-c3ccccc3)n2)cc1)NC1CC1` the figure was 3070 nM.
The result for `CC(C)N1CCN(C(=O)c2ccc(NC(=O)Nc3ccc(-c4nc(C5CCOCC5)cc(N5CCOC[C@H]5C)n4)cc3)cc2)CC1` reads 146 nM; that for `CNC(=O)Nc1ccc(-c2cc3nccn3c(N3CCOCC3)n2)cc1`, 2970 nM.
Regarding `CN1CCN(c2ccc(NC(=O)Nc3ccc(-c4ccnc(N5CCOCC5)n4)cc3)cn2)CC1`, the IC50 was 79 nM. This IC50 lies about 38-fold lower than the previous one.
The result for `C[C@@H]1COCCN1c1cc(N2CCOC[C@H]2C)nc(-c2ccc(NC(=O)Nc3cccnc3)cc2)n1` reads 983 nM; that for `C[C@@H]1COCCN1c1cc(N2CCOC[C@H]2C)nc(-c2ccc(NC(=O)Nc3ccc(N4CCN(C)CC4)cc3)cc2)n1`, 565 nM; that for `O=C(Nc1ccncc1)Nc1ccc(-c2cc(N3CCOCC3)nc(N3CCOCC3)n2)cc1`, 16 nM.
